Assay type in all cases: biochemical
The target of one assay is T1, JAK3 (Homo sapiens, UniProt P52333).
T1 sequence (P52333 1-1124): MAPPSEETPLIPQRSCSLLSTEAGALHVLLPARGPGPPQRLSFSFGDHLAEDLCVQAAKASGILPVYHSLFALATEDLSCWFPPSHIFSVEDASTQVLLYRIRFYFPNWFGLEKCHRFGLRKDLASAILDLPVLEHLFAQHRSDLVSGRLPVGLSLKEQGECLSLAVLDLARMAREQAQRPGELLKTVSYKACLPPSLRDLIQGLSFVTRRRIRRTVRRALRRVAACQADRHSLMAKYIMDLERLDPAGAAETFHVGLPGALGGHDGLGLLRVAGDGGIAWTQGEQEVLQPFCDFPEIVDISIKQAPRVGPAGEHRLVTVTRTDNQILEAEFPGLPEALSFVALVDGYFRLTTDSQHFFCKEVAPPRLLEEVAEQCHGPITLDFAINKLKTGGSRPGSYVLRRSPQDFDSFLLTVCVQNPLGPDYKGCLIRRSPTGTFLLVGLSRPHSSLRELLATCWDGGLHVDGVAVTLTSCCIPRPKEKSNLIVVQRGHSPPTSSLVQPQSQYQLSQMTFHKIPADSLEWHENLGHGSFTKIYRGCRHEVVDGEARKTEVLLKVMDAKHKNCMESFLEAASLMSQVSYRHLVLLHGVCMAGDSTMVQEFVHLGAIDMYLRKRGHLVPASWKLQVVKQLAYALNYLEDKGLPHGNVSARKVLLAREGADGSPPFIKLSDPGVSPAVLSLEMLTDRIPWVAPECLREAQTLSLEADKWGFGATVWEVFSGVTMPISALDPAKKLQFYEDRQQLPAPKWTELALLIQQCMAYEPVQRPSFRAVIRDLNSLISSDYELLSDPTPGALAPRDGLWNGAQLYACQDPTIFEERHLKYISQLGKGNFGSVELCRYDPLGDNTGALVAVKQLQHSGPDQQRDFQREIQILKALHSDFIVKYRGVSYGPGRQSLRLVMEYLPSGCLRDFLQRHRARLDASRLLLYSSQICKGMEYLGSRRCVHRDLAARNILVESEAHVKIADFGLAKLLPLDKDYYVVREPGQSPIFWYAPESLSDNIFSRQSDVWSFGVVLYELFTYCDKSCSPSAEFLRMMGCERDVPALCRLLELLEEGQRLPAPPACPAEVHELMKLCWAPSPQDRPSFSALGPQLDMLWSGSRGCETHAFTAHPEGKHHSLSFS
In words: Inhibition of JAK kinase activity, EZ Reader microfluidic phosphorylation of peptide substrate: JAK3. The note with it: JAK3 kinase 1 nM; highest final concentration 10 μM, 1:3 serial dilution, 8 points, duplicates. An outline of the steps: (§1)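 Microfluidic mobility-shift assay reading fluorescent peptide substrate and product; kinases at 20 nM (JAK1) or 1 nM (JAK2, JAK3, Tyk2) in pH 7.4 HEPES with 10 mM MgCl2, run at room temperature to 20-30% conversion, then stopped with EDTA. Compounds tested from 10 μM top, 1:3 over 8 points in duplicate; IC50 fitted from % conversion.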

Another assay concerns the target Tyk2 (Homo sapiens, UniProt P29597). The assay is described as follows: Inhibition of JAK kinase activity, EZ Reader microfluidic phosphorylation of peptide substrate: Tyk2. The note with it: Tyk2 kinase 1 nM; highest final concentration 10 μM, 1:3 serial dilution, 8 points, duplicates. An outline of the steps:
as §1

For the next assay, the target named is JAK2 (Homo sapiens, UniProt O60674). In words: Inhibition of JAK kinase activity, EZ Reader microfluidic phosphorylation of peptide substrate: JAK2. The note with it: JAK2 kinase 1 nM; highest final concentration 10 μM, 1:3 serial dilution, 8 points, duplicates. The procedure, abridged: as §1
The target of a further assay is JAK1 (Homo sapiens, UniProt P23458). In words: Inhibition of JAK kinase activity, EZ Reader microfluidic phosphorylation of peptide substrate: JAK1. As to conditions: JAK1 kinase 20 nM; highest final concentration 10 μM, 1:3 serial dilution, 8 points, duplicates. The procedure, abridged: as §1

Molecules are shown by their SMILES.

Chain of Tyk2 (P29597 whole entry): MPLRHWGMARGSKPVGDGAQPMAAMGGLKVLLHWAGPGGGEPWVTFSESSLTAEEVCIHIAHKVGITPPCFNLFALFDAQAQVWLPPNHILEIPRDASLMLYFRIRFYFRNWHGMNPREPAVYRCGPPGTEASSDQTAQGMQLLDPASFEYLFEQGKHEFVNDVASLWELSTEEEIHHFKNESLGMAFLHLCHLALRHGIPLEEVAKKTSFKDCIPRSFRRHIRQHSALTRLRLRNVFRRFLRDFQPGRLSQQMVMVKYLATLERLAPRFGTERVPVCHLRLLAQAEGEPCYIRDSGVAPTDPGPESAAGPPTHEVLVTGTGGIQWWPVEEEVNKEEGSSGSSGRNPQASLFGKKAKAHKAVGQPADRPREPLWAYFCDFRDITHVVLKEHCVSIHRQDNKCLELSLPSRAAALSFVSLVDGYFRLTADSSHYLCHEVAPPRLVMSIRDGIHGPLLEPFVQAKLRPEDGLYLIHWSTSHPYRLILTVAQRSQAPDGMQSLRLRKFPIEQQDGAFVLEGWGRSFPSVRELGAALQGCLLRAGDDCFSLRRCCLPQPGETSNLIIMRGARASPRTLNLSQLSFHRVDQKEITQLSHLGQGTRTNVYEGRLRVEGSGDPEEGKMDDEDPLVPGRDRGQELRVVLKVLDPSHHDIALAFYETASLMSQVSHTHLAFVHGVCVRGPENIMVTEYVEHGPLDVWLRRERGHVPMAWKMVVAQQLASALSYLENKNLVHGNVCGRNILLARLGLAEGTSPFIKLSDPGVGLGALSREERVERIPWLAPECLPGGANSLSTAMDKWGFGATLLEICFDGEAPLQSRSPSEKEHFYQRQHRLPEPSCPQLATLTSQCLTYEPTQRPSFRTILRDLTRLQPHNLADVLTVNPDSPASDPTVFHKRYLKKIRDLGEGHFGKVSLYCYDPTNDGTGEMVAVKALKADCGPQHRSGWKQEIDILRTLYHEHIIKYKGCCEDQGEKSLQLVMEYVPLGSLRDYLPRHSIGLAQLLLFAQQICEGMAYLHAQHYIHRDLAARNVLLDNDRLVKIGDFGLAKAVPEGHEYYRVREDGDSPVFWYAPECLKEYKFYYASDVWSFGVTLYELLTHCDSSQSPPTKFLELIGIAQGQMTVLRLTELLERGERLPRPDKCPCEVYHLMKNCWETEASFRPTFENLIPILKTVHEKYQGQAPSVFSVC
Chain of JAK2 (O60674 whole entry): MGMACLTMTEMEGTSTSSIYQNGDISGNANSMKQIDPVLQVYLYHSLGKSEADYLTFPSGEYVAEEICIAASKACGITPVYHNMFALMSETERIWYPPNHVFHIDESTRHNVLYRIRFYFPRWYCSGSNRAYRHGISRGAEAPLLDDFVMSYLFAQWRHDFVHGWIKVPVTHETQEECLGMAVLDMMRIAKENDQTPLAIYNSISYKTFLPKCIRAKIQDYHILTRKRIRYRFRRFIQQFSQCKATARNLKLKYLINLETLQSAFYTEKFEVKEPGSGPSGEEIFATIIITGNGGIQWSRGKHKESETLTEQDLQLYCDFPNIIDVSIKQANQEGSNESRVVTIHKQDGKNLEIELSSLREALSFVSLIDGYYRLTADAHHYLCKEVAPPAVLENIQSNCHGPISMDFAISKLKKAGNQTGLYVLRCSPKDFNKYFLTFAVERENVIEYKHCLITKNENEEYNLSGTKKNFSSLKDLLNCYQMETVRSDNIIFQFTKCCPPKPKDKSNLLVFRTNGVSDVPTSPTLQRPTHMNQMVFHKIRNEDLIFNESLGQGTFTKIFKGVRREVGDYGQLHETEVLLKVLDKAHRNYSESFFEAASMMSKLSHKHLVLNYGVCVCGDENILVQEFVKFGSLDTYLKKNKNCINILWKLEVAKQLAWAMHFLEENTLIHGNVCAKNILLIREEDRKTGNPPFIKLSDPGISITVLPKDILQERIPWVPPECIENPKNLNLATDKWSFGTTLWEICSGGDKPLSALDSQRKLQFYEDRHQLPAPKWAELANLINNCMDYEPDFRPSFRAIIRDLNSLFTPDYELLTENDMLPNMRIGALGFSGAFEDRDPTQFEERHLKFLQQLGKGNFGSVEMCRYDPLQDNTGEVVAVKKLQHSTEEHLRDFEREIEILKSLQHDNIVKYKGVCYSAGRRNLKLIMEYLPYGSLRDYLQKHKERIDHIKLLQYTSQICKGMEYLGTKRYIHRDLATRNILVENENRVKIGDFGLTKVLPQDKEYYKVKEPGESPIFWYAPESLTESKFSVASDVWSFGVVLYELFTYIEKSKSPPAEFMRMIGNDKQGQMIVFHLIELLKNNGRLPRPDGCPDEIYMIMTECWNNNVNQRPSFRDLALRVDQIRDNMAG
Chain of JAK1 (P23458 whole entry): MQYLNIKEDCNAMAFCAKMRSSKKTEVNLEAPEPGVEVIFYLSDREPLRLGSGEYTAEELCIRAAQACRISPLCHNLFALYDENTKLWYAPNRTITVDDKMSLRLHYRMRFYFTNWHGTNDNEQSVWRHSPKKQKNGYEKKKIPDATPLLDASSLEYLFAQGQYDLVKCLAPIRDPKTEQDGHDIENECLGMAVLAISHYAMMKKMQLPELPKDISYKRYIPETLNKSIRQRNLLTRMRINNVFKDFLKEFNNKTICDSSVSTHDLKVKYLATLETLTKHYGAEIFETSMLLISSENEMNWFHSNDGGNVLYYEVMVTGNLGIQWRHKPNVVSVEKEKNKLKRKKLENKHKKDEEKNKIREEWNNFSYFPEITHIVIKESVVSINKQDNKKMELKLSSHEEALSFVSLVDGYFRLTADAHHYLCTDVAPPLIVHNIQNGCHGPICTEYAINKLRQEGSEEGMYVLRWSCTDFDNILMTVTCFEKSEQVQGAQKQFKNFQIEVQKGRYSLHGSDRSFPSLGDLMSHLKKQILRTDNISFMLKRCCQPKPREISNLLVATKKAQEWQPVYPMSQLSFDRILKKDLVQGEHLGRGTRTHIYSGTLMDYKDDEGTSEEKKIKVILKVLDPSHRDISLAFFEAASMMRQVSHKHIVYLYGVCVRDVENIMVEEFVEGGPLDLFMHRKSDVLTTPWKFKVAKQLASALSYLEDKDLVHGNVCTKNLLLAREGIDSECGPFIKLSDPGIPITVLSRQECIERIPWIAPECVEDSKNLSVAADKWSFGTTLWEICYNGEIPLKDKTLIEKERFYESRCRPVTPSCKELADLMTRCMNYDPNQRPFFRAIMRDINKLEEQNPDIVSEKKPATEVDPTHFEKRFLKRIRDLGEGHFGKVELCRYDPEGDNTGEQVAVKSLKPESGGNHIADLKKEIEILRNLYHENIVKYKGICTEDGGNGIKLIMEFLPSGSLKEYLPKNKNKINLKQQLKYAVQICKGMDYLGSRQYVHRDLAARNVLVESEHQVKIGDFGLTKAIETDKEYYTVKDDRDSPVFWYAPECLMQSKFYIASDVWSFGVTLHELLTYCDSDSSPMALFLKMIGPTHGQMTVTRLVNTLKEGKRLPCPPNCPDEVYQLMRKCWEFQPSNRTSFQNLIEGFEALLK

For orientation: IC50 means the concentration needed to halve the response being measured. Lower therefore signals greater potency. As to `CCCS(=O)(=O)N1CC(CC#N)(n2ccc(-c3ccnc(Nc4cnn(C)c4)n3)c2)C1` [TDM-180785, 2-(3-(3-(2-((1-methyl-1H-pyrazol-4-yl)amino)pyrimidin-4-yl)-1H-pyrrol-1-yl)-1-(propylsulfonyl)azetidinpyridin-3-yl)acetonitrile], the IC50 against JAK3 was ≥ 10 µM; on Tyk2, 0.1 to 1 µM; at JAK2 it was 0.1 to 1 µM; against JAK1, 0.1 to 1 µM.

As to `CCCS(=O)(=O)N1CC(CC#N)(n2cc(-c3ccnc(Nc4cnn(C)c4)n3)cn2)C1` [TDM-180794, 2-(3-(4-(2-((1-methyl-1H-pyrazol-4-yl)amino)pyrimidin-4-yl)-1H-pyrazol-1-yl)-1-(propylsulfonyl)azacyclobutanpyridin-3-yl)acetonitrile], the IC50 fell in the range of 1 to 10 µM on JAK3, 0.1 to 1 µM at Tyk2, 0.1 to 1 µM against JAK2 and 0.1 to 1 µM against JAK1.

As to `Cn1cc(Nc2nccc(-c3cnn(C4(CC#N)CN(S(=O)(=O)Cc5ccccc5)C4)c3)n2)cn1` [TDM-180795, 2-(1-(benzylsulfonyl)-3-(4-(2-((1-methyl-1H-pyrazol-4-yl)amino)pyrimidin-4-yl)-1H-pyrazol-1-yl)azetidinpyridin-3-yl)acetonitrile], the IC50 against JAK3 was ≥ 10 µM; at Tyk2, 0.1 to 1 µM; against JAK2, 0.1 to 1 µM; on JAK1, 1 to 10 µM.

`CCOCCS(=O)(=O)N1CC(CC#N)(n2cc(-c3ccnc(Nc4cnn(C)c4)n3)cn2)C1` [TDM-180796, 2-(1-((2-ethoxyethyl)sulfonyl)-3-(4-(2-((1-methyl-1H-pyrazol-4-yl)amino)pyrimidin-4-yl)-1H-pyrazol-1-yl)azetidin-3-yl)acetonitrile]: the IC50 at JAK3 was ≥ 10 µM; against Tyk2 it was 0.1 to 1 µM; at JAK2 it was 0.1 to 1 µM; on JAK1, 1 to 10 µM.

With `Cn1cc(Nc2nccc(-c3cnn(C4(CC#N)CN(S(=O)(=O)C5CCOCC5)C4)c3)n2)cn1` [TDM-180797, 2-(3-(4-(2-((1-methyl-1H-pyrazol-4-yl)amino)pyrimidin-4-yl)-1H-pyrazol-1-yl)-1-((tetrahydro-2H-pyran-4-yl)sulfonyl)azetidin-3-yl)acetonitrile], the half-inhibitory concentration (IC50) is ≥ 10 µM at JAK3, 0.1 to 1 µM against Tyk2, 0.1 to 1 µM on JAK2 and 0.1 to 1 µM at JAK1.

On to `C=CCS(=O)(=O)N1CC(CC#N)(n2cc(-c3ccnc(Nc4cnn(C)c4)n3)cn2)C1` [TDM-180800, 2-(1-(allylsulfonyl)-3-(4-(2-((1-methyl-1H-pyrazol-4-yl)amino)pyrimidin-4-yl)-1H-pyrazol-1-yl)azetidin-3-yl)acetonitrile], for which the IC50 lay in the range of 1 to 10 µM against JAK3, 0.1 to 1 µM at Tyk2, 0.1 to 1 µM at JAK2 and 0.1 to 1 µM at JAK1.

Regarding `CCCCS(=O)(=O)N1CC(CC#N)(n2cc(-c3ccnc(Nc4cnn(C)c4)n3)cn2)C1` [TDM-180807, 2-(1-(butylsulfonyl)-3-(4-(2-((1-methyl-1H-pyrazol-4-yl)amino)pyrimidin-4-yl)-1H-pyrazol-1-yl)azetidin-3-yl)acetonitrile], the IC50 is ≥ 10 µM on JAK3, 0.1 to 1 µM at Tyk2, 0.1 to 1 µM against JAK2 and 1 to 10 µM against JAK1.

As for `Cn1cc(Nc2nccc(-c3cnn(C4(CC#N)CN(S(=O)(=O)CCC(F)(F)F)C4)c3)n2)cn1` [TDM-180808, 2-(3-(4-(2-((1-methyl-1H-pyrazol-4-yl)amino)pyrimidin-4-yl)-1H-pyrazol-1-yl)-1-((3,3,3-trifluoropropyl)sulfonyl)azetidin-3-yl)acetonitrile], the IC50 on JAK3 is 1 to 10 µM; at Tyk2, 0.1 to 1 µM; at JAK2 it was 0.1 to 1 µM; at JAK1, 0.1 to 1 µM.

With `CC(=O)N1CCN(c2ccc(-c3ccnc(Nc4cnn(C)c4)n3)cc2)CC1` [TDM-180827, 1-(4-(4-(2-((1-methyl-1H-pyrazol-4-yl)amino)pyrimidin-4-yl)phenyl)piperazin-1-yl)ethan-1-one], the IC50 on JAK3 was ≥ 10 µM; at Tyk2, 1 to 10 µM; at JAK2, 0.1 to 1 µM; at JAK1 it was 1 to 10 µM.

On to `CN1CCN(c2ccc(-c3ccnc(Nc4cnn(C)c4)n3)cc2)CC1` [TDM-180828, N-(1-methyl-1H-pyrazol-4-yl)-4-(4-(4-methylpiperazin-1-yl)phenyl)pyrimidin-2-amine], for which the IC50 was ≥ 10 µM against JAK3, 1 to 10 µM at Tyk2, 1 to 10 µM against JAK2 and 1 to 10 µM at JAK1.

Regarding `Cn1cc(Nc2nccc(-c3ccn(C4(CC#N)CN(S(=O)(=O)CCCF)C4)c3)n2)cn1` [TDM-180854, 2-(1-((3-fluoropropyl)sulfonyl)-3-(3-(2-((1-methyl-1H-pyrazol-4-yl)amino)pyrimidin-4-yl)-1H-pyrrol-1-yl)azetidin-3-yl)acetonitrile], the IC50 is 1 to 10 µM against JAK3, 0.1 to 1 µM at Tyk2, < 0.1 µM at JAK2 and 0.1 to 1 µM on JAK1.

For `Cn1cc(Nc2nccc(-c3ccn(C4(CC#N)CN(S(=O)(=O)C5CCOCC5)C4)c3)n2)cn1` [TDM-180855, 2-(3-(3-(2-((1-methyl-1H-pyrazol-4-yl)amino)pyrimidin-4-yl)-1H-pyrrol-1-yl)-1-((tetrahydro-2H-pyran-4-yl)sulfonyl)azetidin-3-yl)acetonitrile], the IC50 against JAK3 lay in the range of 1 to 10 µM; against Tyk2, 0.1 to 1 µM; against JAK2, 0.1 to 1 µM; against JAK1 it was 0.1 to 1 µM.

These data come from patent US12509447B2, “Small molecule compound” (Technoderma Medicines Pte Ltd, priority 2019, dated 2025).
